Measured values taken from the NIST ThermoML archive (doi:10.1016/j.fluid.2005.07.009).
Numbers after ± are expanded uncertainties.

Legend:
[1] = DTA
[2] = Molar enthalpy of transition or fusion; conditions: DSC
[3] = molar heat capacity at constant pressure; conditions: 101.33 kPa, Small sample (50 mg) DSC

NCCCN [1,3-propanediamine]
Triple point temperature ([1]; Crystal 1): 262.19 ± 0.5 K | Molar enthalpy of transition or fusion ([2]; Crystal 1): 5.34 ± 0.158 kcal/mol | molar heat capacity at constant pressure ([3]; 210.17 K, Crystal 2): 95.15 ± 1.9 J/K/mol | molar heat capacity at constant pressure ([3]; 211.63 K, Crystal 2): 98.6 ± 2 J/K/mol | molar heat capacity at constant pressure ([3]; 212.38 K, Crystal 2): 99.24 ± 2 J/K/mol | molar heat capacity at constant pressure ([3]; 213.45 K, Crystal 2): 100.56 ± 2 J/K/mol | molar heat capacity at constant pressure ([3]; 214.52 K, Crystal 2): 101.65 ± 2 J/K/mol | molar heat capacity at constant pressure ([3]; 215.39 K, Crystal 2): 102.15 ± 2 J/K/mol | molar heat capacity at constant pressure ([3]; 216.89 K, Crystal 2): 102.21 ± 2 J/K/mol | molar heat capacity at constant pressure ([3]; 217.39 K, Crystal 2): 102.47 ± 2 J/K/mol | molar heat capacity at constant pressure ([3]; 218.2 K, Crystal 2): 103.01 ± 2.1 J/K/mol | molar heat capacity at constant pressure ([3]; 219.56 K, Crystal 2): 103.15 ± 2.1 J/K/mol | molar heat capacity at constant pressure ([3]; 220.98 K, Crystal 2): 103.33 ± 2.1 J/K/mol | molar heat capacity at constant pressure ([3]; 221.6 K, Crystal 2): 104.53 ± 2.1 J/K/mol | molar heat capacity at constant pressure ([3]; 222.57 K, Crystal 2): 105.45 ± 2.1 J/K/mol | molar heat capacity at constant pressure ([3]; 223.61 K, Crystal 2): 106.47 ± 2.1 J/K/mol | molar heat capacity at constant pressure ([3]; 224.16 K, Crystal 2): 106.75 ± 2.1 J/K/mol | molar heat capacity at constant pressure ([3]; 225.7 K, Crystal 2): 106.91 ± 2.1 J/K/mol | molar heat capacity at constant pressure ([3]; 226.44 K, Crystal 2): 107.67 ± 2.1 J/K/mol | molar heat capacity at constant pressure ([3]; 226.87 K, Crystal 2): 108.07 ± 2.2 J/K/mol | molar heat capacity at constant pressure ([3]; 228.09 K, Crystal 2): 108.1 ± 2.2 J/K/mol | molar heat capacity at constant pressure ([3]; 229.51 K, Crystal 2): 108.47 ± 2.2 J/K/mol | molar heat capacity at constant pressure ([3]; 230.13 K, Crystal 2): 109.74 ± 2.2 J/K/mol | molar heat capacity at constant pressure ([3]; 231.59 K, Crystal 2): 110.88 ± 2.2 J/K/mol | molar heat capacity at constant pressure ([3]; 232.5 K, Crystal 2): 111.31 ± 2.2 J/K/mol | molar heat capacity at constant pressure ([3]; 233.79 K, Crystal 2): 111.43 ± 2.2 J/K/mol | molar heat capacity at constant pressure ([3]; 234.58 K, Crystal 2): 113.62 ± 2.3 J/K/mol | molar heat capacity at constant pressure ([3]; 235.36 K, Crystal 2): 115.41 ± 2.3 J/K/mol | molar heat capacity at constant pressure ([3]; 237.9 K, Crystal 2): 116.57 ± 2.3 J/K/mol | molar heat capacity at constant pressure ([3]; 238.39 K, Crystal 2): 116.7 ± 2.3 J/K/mol | molar heat capacity at constant pressure ([3]; 239.37 K, Crystal 2): 117.02 ± 2.3 J/K/mol | molar heat capacity at constant pressure ([3]; 240.41 K, Crystal 2): 119.05 ± 2.4 J/K/mol | molar heat capacity at constant pressure ([3]; 269.31 K, Liquid): 200.32 ± 4 J/K/mol | molar heat capacity at constant pressure ([3]; 271.34 K, Liquid): 200.44 ± 4 J/K/mol | molar heat capacity at constant pressure ([3]; 273.29 K, Liquid): 200.87 ± 4 J/K/mol | molar heat capacity at constant pressure ([3]; 275.36 K, Liquid): 200.94 ± 4 J/K/mol | molar heat capacity at constant pressure ([3]; 277.41 K, Liquid): 201.41 ± 4 J/K/mol | molar heat capacity at constant pressure ([3]; 279.63 K, Liquid): 201.51 ± 4 J/K/mol | molar heat capacity at constant pressure ([3]; 281.55 K, Liquid): 201.82 ± 4 J/K/mol | molar heat capacity at constant pressure ([3]; 283.37 K, Liquid): 202.03 ± 4 J/K/mol | molar heat capacity at constant pressure ([3]; 285.47 K, Liquid): 202.29 ± 4 J/K/mol | molar heat capacity at constant pressure ([3]; 287.35 K, Liquid): 202.53 ± 4 J/K/mol | molar heat capacity at constant pressure ([3]; 289.23 K, Liquid): 202.79 ± 4.1 J/K/mol | molar heat capacity at constant pressure ([3]; 291.28 K, Liquid): 203.12 ± 4.1 J/K/mol | molar heat capacity at constant pressure ([3]; 293.27 K, Liquid): 203.44 ± 4.1 J/K/mol | molar heat capacity at constant pressure ([3]; 295.53 K, Liquid): 204.02 ± 4.1 J/K/mol | molar heat capacity at constant pressure ([3]; 297.16 K, Liquid): 204.35 ± 4.1 J/K/mol | molar heat capacity at constant pressure ([3]; 299.44 K, Liquid): 204.4 ± 4.1 J/K/mol | molar heat capacity at constant pressure ([3]; 302.13 K, Liquid): 204.56 ± 4.1 J/K/mol | molar heat capacity at constant pressure ([3]; 304.68 K, Liquid): 204.87 ± 4.1 J/K/mol | molar heat capacity at constant pressure ([3]; 306.46 K, Liquid): 204.95 ± 4.1 J/K/mol | molar heat capacity at constant pressure ([3]; 308.51 K, Liquid): 205.44 ± 4.1 J/K/mol | molar heat capacity at constant pressure ([3]; 310.56 K, Liquid): 205.49 ± 4.1 J/K/mol | molar heat capacity at constant pressure ([3]; 312.42 K, Liquid): 205.78 ± 4.1 J/K/mol | molar heat capacity at constant pressure ([3]; 315.65 K, Liquid): 206.16 ± 4.1 J/K/mol | molar heat capacity at constant pressure ([3]; 317.6 K, Liquid): 206.28 ± 4.1 J/K/mol | molar heat capacity at constant pressure ([3]; 320.27 K, Liquid): 206.67 ± 4.1 J/K/mol | molar heat capacity at constant pressure ([3]; 322.36 K, Liquid): 206.76 ± 4.1 J/K/mol | molar heat capacity at constant pressure ([3]; 325.51 K, Liquid): 207.27 ± 4.2 J/K/mol | molar heat capacity at constant pressure ([3]; 327.54 K, Liquid): 207.43 ± 4.2 J/K/mol | molar heat capacity at constant pressure ([3]; 330.44 K, Liquid): 207.85 ± 4.2 J/K/mol | molar heat capacity at constant pressure ([3]; 333.46 K, Liquid): 207.99 ± 4.2 J/K/mol

CCCCCCCCCCO [decan-1-ol]
Triple point temperature ([1]; Crystal): 278.67 ± 0.5 K | Molar enthalpy of transition or fusion ([2]; Crystal): 7.5 ± 0.213 kcal/mol | molar heat capacity at constant pressure ([3]; 215.12 K, Crystal): 224.54 ± 4.5 J/K/mol | molar heat capacity at constant pressure ([3]; 216.09 K, Crystal): 227.81 ± 4.6 J/K/mol | molar heat capacity at constant pressure ([3]; 217.28 K, Crystal): 228.07 ± 4.6 J/K/mol | molar heat capacity at constant pressure ([3]; 218.46 K, Crystal): 228.68 ± 4.6 J/K/mol | molar heat capacity at constant pressure ([3]; 219.05 K, Crystal): 228.9 ± 4.6 J/K/mol | molar heat capacity at constant pressure ([3]; 219.59 K, Crystal): 229.05 ± 4.6 J/K/mol | molar heat capacity at constant pressure ([3]; 222.22 K, Crystal): 229.19 ± 4.6 J/K/mol | molar heat capacity at constant pressure ([3]; 222.81 K, Crystal): 230.27 ± 4.6 J/K/mol | molar heat capacity at constant pressure ([3]; 223.03 K, Crystal): 230.39 ± 4.6 J/K/mol | molar heat capacity at constant pressure ([3]; 226.41 K, Crystal): 231.18 ± 4.6 J/K/mol | molar heat capacity at constant pressure ([3]; 227.05 K, Crystal): 232.61 ± 4.7 J/K/mol | molar heat capacity at constant pressure ([3]; 229.62 K, Crystal): 232.81 ± 4.7 J/K/mol | molar heat capacity at constant pressure ([3]; 230.15 K, Crystal): 233.54 ± 4.7 J/K/mol | molar heat capacity at constant pressure ([3]; 231.71 K, Crystal): 234.37 ± 4.7 J/K/mol | molar heat capacity at constant pressure ([3]; 232.3 K, Crystal): 234.76 ± 4.7 J/K/mol | molar heat capacity at constant pressure ([3]; 233.74 K, Crystal): 235.5 ± 4.7 J/K/mol | molar heat capacity at constant pressure ([3]; 234.54 K, Crystal): 235.92 ± 4.7 J/K/mol | molar heat capacity at constant pressure ([3]; 235.82 K, Crystal): 237.25 ± 4.8 J/K/mol | molar heat capacity at constant pressure ([3]; 236.3 K, Crystal): 237.29 ± 4.8 J/K/mol | molar heat capacity at constant pressure ([3]; 237.11 K, Crystal): 238.88 ± 4.8 J/K/mol | molar heat capacity at constant pressure ([3]; 238.28 K, Crystal): 239.81 ± 4.8 J/K/mol | molar heat capacity at constant pressure ([3]; 239.94 K, Crystal): 240.28 ± 4.8 J/K/mol | molar heat capacity at constant pressure ([3]; 240.47 K, Crystal): 240.35 ± 4.8 J/K/mol | molar heat capacity at constant pressure ([3]; 241.16 K, Crystal): 241 ± 4.8 J/K/mol | molar heat capacity at constant pressure ([3]; 242.71 K, Crystal): 241.58 ± 4.8 J/K/mol | molar heat capacity at constant pressure ([3]; 244.15 K, Crystal): 244.94 ± 4.9 J/K/mol | molar heat capacity at constant pressure ([3]; 246.13 K, Crystal): 245.49 ± 4.9 J/K/mol | molar heat capacity at constant pressure ([3]; 248.85 K, Crystal): 245.75 ± 4.9 J/K/mol | molar heat capacity at constant pressure ([3]; 249.22 K, Crystal): 246.47 ± 4.9 J/K/mol | molar heat capacity at constant pressure ([3]; 250.88 K, Crystal): 247.17 ± 4.9 J/K/mol | molar heat capacity at constant pressure ([3]; 251.14 K, Crystal): 247.6 ± 5 J/K/mol | molar heat capacity at constant pressure ([3]; 252.58 K, Crystal): 250.51 ± 5 J/K/mol | molar heat capacity at constant pressure ([3]; 253.49 K, Crystal): 252.9 ± 5.1 J/K/mol | molar heat capacity at constant pressure ([3]; 284.18 K, Liquid): 357.16 ± 7.1 J/K/mol | molar heat capacity at constant pressure ([3]; 285.11 K, Liquid): 357.65 ± 7.2 J/K/mol | molar heat capacity at constant pressure ([3]; 286.23 K, Liquid): 359.66 ± 7.2 J/K/mol | molar heat capacity at constant pressure ([3]; 287.17 K, Liquid): 360.07 ± 7.2 J/K/mol | molar heat capacity at constant pressure ([3]; 288.21 K, Liquid): 361.72 ± 7.2 J/K/mol | molar heat capacity at constant pressure ([3]; 289.63 K, Liquid): 363.32 ± 7.3 J/K/mol | molar heat capacity at constant pressure ([3]; 290.29 K, Liquid): 363.87 ± 7.3 J/K/mol | molar heat capacity at constant pressure ([3]; 291.08 K, Liquid): 364.63 ± 7.3 J/K/mol | molar heat capacity at constant pressure ([3]; 292.13 K, Liquid): 366.29 ± 7.3 J/K/mol | molar heat capacity at constant pressure ([3]; 293.23 K, Liquid): 366.99 ± 7.3 J/K/mol | molar heat capacity at constant pressure ([3]; 294.29 K, Liquid): 368.16 ± 7.4 J/K/mol | molar heat capacity at constant pressure ([3]; 295.69 K, Liquid): 369.19 ± 7.4 J/K/mol | molar heat capacity at constant pressure ([3]; 296.43 K, Liquid): 370.09 ± 7.4 J/K/mol | molar heat capacity at constant pressure ([3]; 297.49 K, Liquid): 370.33 ± 7.4 J/K/mol | molar heat capacity at constant pressure ([3]; 298.55 K, Liquid): 373 ± 7.5 J/K/mol | molar heat capacity at constant pressure ([3]; 299.51 K, Liquid): 374.14 ± 7.5 J/K/mol | molar heat capacity at constant pressure ([3]; 300.21 K, Liquid): 375.31 ± 7.5 J/K/mol | molar heat capacity at constant pressure ([3]; 301.18 K, Liquid): 375.74 ± 7.5 J/K/mol | molar heat capacity at constant pressure ([3]; 302.45 K, Liquid): 377.89 ± 7.6 J/K/mol | molar heat capacity at constant pressure ([3]; 304.22 K, Liquid): 380.22 ± 7.6 J/K/mol | molar heat capacity at constant pressure ([3]; 305.31 K, Liquid): 381.17 ± 7.6 J/K/mol | molar heat capacity at constant pressure ([3]; 306.42 K, Liquid): 382.5 ± 7.7 J/K/mol | molar heat capacity at constant pressure ([3]; 307.18 K, Liquid): 383.77 ± 7.7 J/K/mol | molar heat capacity at constant pressure ([3]; 308.14 K, Liquid): 384.86 ± 7.7 J/K/mol
